Assay [1] has as its target ROCK1 (Homo sapiens, UniProt Q13464). Briefly: Luciferase assay of peptide25 fragments and alanine substitutions. The format is biochemical. The method, then: (Right panel) Likewise the alanine substitution at positions Y4, S5, P6, and S7 all reduced the effectiveness of peptide25.
The peptide25 was divided into fragments; ERTYS (F1; SEQ ID NO: 3), YSPST (F2; SEQ ID NO: 4), and STAVRS (F3; SEQ ID NO: 2). […] Additionally, an alanine substitution was performed at each position to look for amino acids that putatively might be important to binding and when replaced reduced the response.

Assay [2] relates to cellular cytoskeleton. The experiment in a line: Cellular cytoskeleton disruption in cell culture. It is filed as cell-based. To be noted: added to cell culture medium. The text has this:
Peptides25 was synthesized and one of which contained a fusion of the N′ end terminal TAT sequence (TATpeptide25), which allows peptides and proteins easy entry into cells.
Peptides25 was synthesized and an additional synthesis which contained a fusion of the N′ end terminal TAT sequence (TATpeptide25), which allows peptides and proteins easy entry into cells. […] The TAT polypeptide sequence alone was ineffective. At the cellular level, the cell cytoskeleton changed after TATpeptide25 was introduced into cell culture medium as expected, since ROCK is a mediator for cell morphology and cell migration.

Assay [3] concerns cell movement into the wound (ROCK1). Briefly: Wound healing scratch test. It is filed as cell-based. To be noted: for percent of healing (mean): standard scratch test, at least N=5 trials, control mean 17.4. As to the method:
Peptide25 change in perimeter (mean: 15%; p-value: 0.03) was evaluated for 4 separate experiments with each having 3 trials for a total of 12 measurements. These experiments included two controls, one with no treatment the other with only the TAT peptide.
Peptide fragments were chosen based on the information from analysis of critical residues and the candidate sequences Pep25-A AAYSPST (Pep25-A; SEQ ID NO: 62) and ERTYSPS (Pep25-P2; SEQ ID NO: 69) were evaluated again using a wound healing scratch test.

The test system of assay [4] is protein kinase A. To be noted: cited from earlier work.
Assay [5] has as its target citron kinase (Homo sapiens, UniProt O14578). The settings on record: cited from earlier work.
In assay [6] the test system is ROCK. The experiment in a line: ROCK and S6 substrate reaction followed by mass spectrum. The format is biochemical. The method, then: FIG. 10—(Left panel) Mass spectrum, two peaks labeled as S6 and pS6 were non-phosphorylated and phosphorylated S6 from ROCK reaction mixture. Following the decreasing concentration of Pep25-P2, the phosphorylated peak pS6 was increasing. (Right panel) S6 conversion ratios were calculated by phosphorylated peak area divided by the sum of phosphorylated and non-phosphorylated peaks' areas.
To determine its inhibition at substrate conversion, different concentrations of Pep25-P2 was added to a ROCK and S6 (substrate) reaction mixture. In MS data, peaks representing phosphorylated and non-phosphorylated S6 substrates were then identified (FIG. 10).

Assay [7] deals with aortic rings contracted with U46619. Briefly: Aortic ring contractility assay (ring bath, U46619). More on the design: species or system mice. As to the method: Channel evaluation of concentrations 150, 200, 300, 100, 250, and 50 μM. Channel 7 (last graph) is the control.
Aortas were collected from adult mice, removed the surrounding fat tissues and installed the freshly cut rings in 2 mm sections on the isometric transducer apparatus. After adjusting the rings tension through series of contraction and relaxation, the rings were constricted 3 times with the 40 mM KCl to achieve consistent contraction. In order to find the effective contraction inducing dose of U46619, following the relaxation of the rings after the KCl contraction, the rings were subjected to contraction by adding different doses of U46619, a vasoconstrictor. 1-3 nM U46619 was chosen do the further experiments. […] Second dose of U46619 was applied to contract the ring. The affection was measured by the difference of the highest response of U46619 with and without Pep25-P2. […] One ring had 26% decreasing, the other had 40% decreasing.

Assay [8] has as its target T1, ROCK1 catalytic domain (MBP-ROCK1) (Homo sapiens, UniProt Q13464).
T1 construct: made in house
The experiment in a line: ROCK1 autophosphorylation inhibition by phage-displayed peptides. The settings on record: for ROCK autophosphorylation inhibition: high ATP levels (1 mM). It is filed as biochemical. The method, then: The maltose binding protein fusion protein linked to the ROCK1 kinase domain (MBP-ROCK1) was incubated with a Ph.D-12 phage display library of 12 amino acids in length (New England Biolabs, Inc).
The ROCK1 catalytic domain (MBP-ROCK1) was linked to a maltose binding protein fusion protein and was incubated with a Ph.D-12 phage display library of 12 amino acids in length (New England Biolabs, Inc.).

For assay [9], the target named is ROCK2 (Homo sapiens, UniProt O75116). Briefly: Surface Plasmon Resonance binding (BiaCore). To be noted: SPR, data not shown. The text has this:
FIG. 6—Determination of binding affinity of TATpeptide25. Proteins MBP, ROCK2, ROCK1-553. ROCK1-415 Were immobilized on CM-5 chip and peptide binding affinity was monitored by BiaCore system. Peptide TAT was used as control to monitored non-specific binding.
Surface Plasmon Resonance (SPR) was used to measure peptide25 binding efficiency with ROCK.
A general note: SPR reads the build-up and loss of mass on a sensor chip optically.

Values joined by “and” are separate entries in the source; they are usually repeats but may differ in a detail not shown here. Equal values may be shown once. “Also recorded” adds a separate entry of the source. No end group written: not given here.

T1 sequence (Q13464 76-338 limits assumed, species assumed): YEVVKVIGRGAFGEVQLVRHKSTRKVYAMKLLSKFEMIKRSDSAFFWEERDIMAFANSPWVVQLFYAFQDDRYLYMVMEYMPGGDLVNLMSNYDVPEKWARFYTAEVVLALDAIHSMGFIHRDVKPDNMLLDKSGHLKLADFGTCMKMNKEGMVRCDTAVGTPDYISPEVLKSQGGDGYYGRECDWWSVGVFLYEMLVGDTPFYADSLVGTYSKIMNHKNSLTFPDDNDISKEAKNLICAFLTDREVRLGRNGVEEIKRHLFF
Sequence of ROCK1 (Q13464 whole entry, species assumed, the tested form may be a part): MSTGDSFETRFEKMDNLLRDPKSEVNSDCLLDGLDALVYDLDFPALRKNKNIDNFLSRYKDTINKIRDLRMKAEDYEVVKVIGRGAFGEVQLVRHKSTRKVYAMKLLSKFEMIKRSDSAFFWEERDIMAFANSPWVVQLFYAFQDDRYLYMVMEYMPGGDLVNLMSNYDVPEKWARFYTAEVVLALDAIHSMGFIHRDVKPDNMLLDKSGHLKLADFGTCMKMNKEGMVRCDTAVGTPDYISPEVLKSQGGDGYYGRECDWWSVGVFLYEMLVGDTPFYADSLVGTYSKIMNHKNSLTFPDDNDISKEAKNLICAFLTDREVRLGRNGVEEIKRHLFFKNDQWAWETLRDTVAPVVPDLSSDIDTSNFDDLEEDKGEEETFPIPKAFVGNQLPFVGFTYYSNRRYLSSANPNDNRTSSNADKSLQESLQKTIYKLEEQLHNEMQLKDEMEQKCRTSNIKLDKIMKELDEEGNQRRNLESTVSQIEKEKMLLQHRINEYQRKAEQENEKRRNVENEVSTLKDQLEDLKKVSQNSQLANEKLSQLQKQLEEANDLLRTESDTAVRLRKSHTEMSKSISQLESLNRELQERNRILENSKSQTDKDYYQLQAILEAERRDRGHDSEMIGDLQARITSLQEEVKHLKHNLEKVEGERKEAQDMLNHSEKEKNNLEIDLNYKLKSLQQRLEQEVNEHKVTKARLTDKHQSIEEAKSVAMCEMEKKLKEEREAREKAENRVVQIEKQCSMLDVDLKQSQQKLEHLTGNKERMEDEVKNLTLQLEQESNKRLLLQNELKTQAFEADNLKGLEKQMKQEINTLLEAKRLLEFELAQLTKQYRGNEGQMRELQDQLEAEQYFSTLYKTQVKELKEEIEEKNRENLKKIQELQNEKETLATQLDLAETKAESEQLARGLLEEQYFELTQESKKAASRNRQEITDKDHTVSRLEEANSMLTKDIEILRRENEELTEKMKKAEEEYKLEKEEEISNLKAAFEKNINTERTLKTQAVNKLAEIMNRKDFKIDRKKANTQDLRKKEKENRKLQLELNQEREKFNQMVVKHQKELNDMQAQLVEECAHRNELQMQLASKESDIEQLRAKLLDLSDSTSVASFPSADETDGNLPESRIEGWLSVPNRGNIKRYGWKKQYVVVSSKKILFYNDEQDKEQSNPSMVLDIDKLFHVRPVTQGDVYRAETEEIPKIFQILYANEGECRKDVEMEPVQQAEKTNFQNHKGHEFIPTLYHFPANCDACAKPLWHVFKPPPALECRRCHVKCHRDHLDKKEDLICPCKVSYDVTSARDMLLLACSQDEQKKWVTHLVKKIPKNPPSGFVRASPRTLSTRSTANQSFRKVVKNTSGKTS
Sequence of ROCK (Q13464 6-415 limits assumed): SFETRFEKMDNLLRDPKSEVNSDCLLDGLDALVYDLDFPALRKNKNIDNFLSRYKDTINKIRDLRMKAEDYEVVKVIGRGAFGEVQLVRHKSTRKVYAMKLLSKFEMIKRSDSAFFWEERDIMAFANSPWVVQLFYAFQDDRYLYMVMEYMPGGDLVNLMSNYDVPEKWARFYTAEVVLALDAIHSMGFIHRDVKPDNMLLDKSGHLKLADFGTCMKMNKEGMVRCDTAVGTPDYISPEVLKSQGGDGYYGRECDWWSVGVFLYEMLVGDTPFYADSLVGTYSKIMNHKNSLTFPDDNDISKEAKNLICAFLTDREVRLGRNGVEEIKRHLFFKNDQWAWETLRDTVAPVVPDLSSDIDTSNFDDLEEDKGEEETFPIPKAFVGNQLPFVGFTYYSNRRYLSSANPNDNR
Sequence of citron kinase (O14578 whole entry): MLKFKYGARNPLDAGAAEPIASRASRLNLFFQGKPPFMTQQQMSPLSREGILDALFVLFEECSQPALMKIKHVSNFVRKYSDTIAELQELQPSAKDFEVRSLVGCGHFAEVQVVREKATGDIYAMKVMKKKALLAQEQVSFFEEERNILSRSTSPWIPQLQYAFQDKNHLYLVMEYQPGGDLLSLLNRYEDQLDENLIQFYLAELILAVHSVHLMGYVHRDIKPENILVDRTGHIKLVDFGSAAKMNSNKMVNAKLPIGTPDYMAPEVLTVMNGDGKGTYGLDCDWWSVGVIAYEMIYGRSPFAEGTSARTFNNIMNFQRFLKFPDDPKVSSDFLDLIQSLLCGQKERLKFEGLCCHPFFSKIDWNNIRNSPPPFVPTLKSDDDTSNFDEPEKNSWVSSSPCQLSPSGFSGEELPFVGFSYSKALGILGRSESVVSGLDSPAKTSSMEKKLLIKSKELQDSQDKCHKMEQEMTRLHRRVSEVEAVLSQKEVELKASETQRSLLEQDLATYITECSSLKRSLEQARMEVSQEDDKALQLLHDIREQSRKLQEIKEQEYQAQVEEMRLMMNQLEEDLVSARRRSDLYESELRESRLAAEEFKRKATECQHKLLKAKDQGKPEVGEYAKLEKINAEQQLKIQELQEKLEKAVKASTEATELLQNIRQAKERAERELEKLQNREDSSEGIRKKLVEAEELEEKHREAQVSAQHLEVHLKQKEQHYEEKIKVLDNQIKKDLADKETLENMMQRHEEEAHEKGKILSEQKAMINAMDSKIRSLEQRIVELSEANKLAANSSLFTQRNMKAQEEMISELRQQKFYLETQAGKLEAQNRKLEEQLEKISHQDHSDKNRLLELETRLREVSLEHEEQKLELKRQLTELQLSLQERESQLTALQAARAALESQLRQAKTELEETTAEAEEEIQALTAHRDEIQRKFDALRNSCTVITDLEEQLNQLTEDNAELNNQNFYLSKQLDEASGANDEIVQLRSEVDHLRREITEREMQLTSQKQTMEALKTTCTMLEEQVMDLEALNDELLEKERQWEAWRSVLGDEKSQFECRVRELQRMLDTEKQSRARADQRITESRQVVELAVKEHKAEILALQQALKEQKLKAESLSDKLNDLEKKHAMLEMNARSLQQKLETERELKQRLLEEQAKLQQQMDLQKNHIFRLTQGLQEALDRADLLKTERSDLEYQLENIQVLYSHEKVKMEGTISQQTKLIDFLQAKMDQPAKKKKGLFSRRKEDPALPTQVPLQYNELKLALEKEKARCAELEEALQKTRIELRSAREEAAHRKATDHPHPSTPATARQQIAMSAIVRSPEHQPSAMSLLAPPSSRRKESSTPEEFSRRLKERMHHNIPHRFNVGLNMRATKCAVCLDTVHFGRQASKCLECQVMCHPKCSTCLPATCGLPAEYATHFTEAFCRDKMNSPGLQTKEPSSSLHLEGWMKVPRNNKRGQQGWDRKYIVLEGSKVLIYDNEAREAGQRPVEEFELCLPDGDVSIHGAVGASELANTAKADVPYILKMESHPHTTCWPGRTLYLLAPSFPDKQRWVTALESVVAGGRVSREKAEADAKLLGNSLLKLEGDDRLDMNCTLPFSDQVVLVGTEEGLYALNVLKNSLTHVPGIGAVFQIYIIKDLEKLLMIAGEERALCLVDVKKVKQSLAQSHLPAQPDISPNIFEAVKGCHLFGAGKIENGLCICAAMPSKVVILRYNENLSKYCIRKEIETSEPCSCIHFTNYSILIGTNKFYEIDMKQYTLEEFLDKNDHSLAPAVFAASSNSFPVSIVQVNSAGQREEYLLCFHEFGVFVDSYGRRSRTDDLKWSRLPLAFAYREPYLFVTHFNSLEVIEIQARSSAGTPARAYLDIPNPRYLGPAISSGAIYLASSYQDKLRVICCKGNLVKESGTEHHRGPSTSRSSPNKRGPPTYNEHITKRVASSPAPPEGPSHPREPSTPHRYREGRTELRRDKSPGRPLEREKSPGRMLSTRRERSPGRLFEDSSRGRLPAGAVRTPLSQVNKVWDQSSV

STAVRS [F3]: the “inhibitory activity measured by luciferase assay” value in [1] is reported as “lost effectively; also recorded: did not confer an inhibitory response”.
As to “TATpeptide25: peptide25 with a fusion of the N′ end terminal TAT sequence (ERTYSPSTAVRS; also: N-terminal TAT sequence fusion, not in given chain)”, the “effect on cellular cytoskeleton” value in assay [2] is listed as “disassociated or “melted” cellular cytoskeleton”; in assay [2] (listed as TAT-end-labeled peptide25), “melted cytoskeleton”.
Consider AAYSPST [Pep25-A], for which the “percent of healing (mean)” value in assay [3] is 15.1%.
Regarding `O=S(=O)(c1cccc2cnccc12)N1CCCNCC1` [Fusadil], in [4], the “inhibition of protein kinase A” value is on record as “also inhibit”. Also, the “inhibition of citron kinase” value in [5] is “also inhibit”.
Turning to ERTYSPS [Pep25-P2], the “effect on cellular cytoskeleton” value in [2] is “disrupted actin exoskeleton formation”. For the same molecule, in assay [3], the “wound healing / ROCK1 inhibition in scratch test” value is “inhibited ROCK1 more effectively; also recorded: inhibited wound healing” and the “percent of healing (mean)” value stood at 13.1%. For the same molecule, in assay [3] (scratch test dose response), the “effective dose from dose curve” value came out at 40 µM. In addition, in [6] (different concentrations of peptide in ROCK and S6 reaction mixture), the “phosphorylation of substrate S6 by ROCK (conversion ratio)” value is reported as “repressed the phosphorylation of substrate S6 by ROCK”. Further, the “phosphorylation of the peptide by ROCK” value in assay [6] (mass spectrum) is reported as “couldn't be phosphorylated by ROCK”. The “suppression of U46619 contractility” value in assay [7] (50-300 μM, preincubation 20 min) was “showed suppression of contractility of U46619; also recorded: dose dependant response”. In assay [7] (200 and 300 μM preincubated 10 min, one ring each, 1-3 nM U46619), the “decrease of highest U46619 contraction response” value was 26% and 40%.
For the molecule ERTYSPSTAVRS [peptide25], the ROCK autophosphorylation inhibition result in [8] is on record as “blocked ROCK autophosphorylation”. For the same molecule, the ROCK1 activity entry in assay [8] (in the presence of mM ATP) is recorded as “blocked ROCK1 activity”. In addition, the autophosphorylated inhibition result in [8] (phage display candidates) is on record as “exhibited autophosphorylated inhibition”. In assay [3] (4 separate experiments, 3 trials each, 12 measurements, p-value 0.03), the “change in perimeter at the intersection of the scratch (mean)” value was found to be 15%. In addition, the “binding with ROCK1 as compared to ROCK2” value in [9] was “demonstrated some difference”.
As for `C[C@@H](N)[C@H]1CC[C@H](C(=O)Nc2ccncc2)CC1` [Y27632], in [8], the ROCK autophosphorylation inhibition result is listed as “blocked Y27632 inhibitory activity”. The “effect on cellular cytoskeleton” value in [2] is “melted cytoskeleton”. Further, in assay [4], the “inhibition of protein kinase A” value was “also inhibit”. In addition, the “inhibition of citron kinase” value in assay [5] is “also inhibit”.
For YSPST [F2], the “inhibitory activity measured by luciferase assay” value in [1] was “retained its activity”.
Same read-out and setting: as for ERTYS [F1], the entry is “retained its activity”.

Source of the values: patent US10335449B2, “Rho associated kinase (ROCK) inhibitors and their use in treating disease” (UNIVERSITY OF HOUSTON SYSTEM, priority 2014, dated 2019).
